For orientation: MIC means the lowest concentration found to suppress growth. By AUC(0-inf) is commonly meant total exposure, with the tail of the curve extrapolated. Broadly, the CC50 is the concentration that lowers cell viability or growth by half. The CL/F is clearance divided by bioavailability, as obtained after extravascular dosing. The term Tmax denotes the time at which the peak concentration occurs. Usually MRT stands for a mean duration of stay, worked out from the concentration-time curve. Usually half-life stands for how long it takes for the measured level to halve. As a reminder, the Cmax is the highest concentration seen after dosing. For orientation: inhibition means the share of the control response that was lost under treatment. One may read the IC50 as the concentration needed to halve the response being measured.

Molecules are shown by their SMILES. Values after ≈ are worked out from the molar mass of the structure shown.

The subject of data set [1] is Mycobacterium tuberculosis. Nature of the data set: Antitubercular activity against Mycobacterium tuberculosis H37Ra ATCC 25177 assessed as reduction in bacterial growth incubated for 7 days by Alamar blue assay. It is filed as functional. The conditions noted are these: H37Ra ATCC 25177, 168 h, time 7 day. A general note: Resazurin is reduced to fluorescent resorufin, in cell work by metabolically active cells.

A short description of data set [2]: AUC(0 to infinity) in ICR mouse at 25 mg/kg, po measured upto 24 hrs by HPLC analysis. It is filed as ADME, organism-based. Also noted: dose 25 mg/kg, time < 24 hrs, route po. The conditions noted are these: in vivo.
Data set [3] in a line: Cytotoxicity against african green monkey Vero cells assessed as reduction in cell viability after 72 hrs by MTT assay. Particulars: chlorocebus sabaeus. In kind it is toxicity, cell-based. Background: Formazan colour is commonly taken as a measure of viable cells.
Data set [4] in a line: Clearance in ICR mouse at 25 mg/kg, po measured upto 24 hrs by HPLC analysis. It is filed as ADME, organism-based. Particulars: in vivo.
Data set [5] can be described thus: Tmax in ICR mouse at 25 mg/kg, po measured upto 24 hrs by HPLC analysis. In kind it is ADME, organism-based. The conditions noted are these: in vivo.
Data set [6] is described as follows: Volume of distribution in ICR mouse at 25 mg/kg, po measured upto 24 hrs by HPLC analysis. In kind it is ADME, organism-based. Particulars: in vivo.
A short description of data set [7]: MRT in ICR mouse at 25 mg/kg, po measured upto 24 hrs by HPLC analysis. The conditions noted are these: in vivo. It is filed as ADME, organism-based.
The nature of data set [8]: Half life in ICR mouse at 25 mg/kg, po measured upto 24 hrs by HPLC analysis. It is filed as ADME, organism-based. Particulars: in vivo.
Data set [9] is described as follows: Cmax in ICR mouse at 25 mg/kg, po measured upto 24 hrs by HPLC analysis. It is filed as ADME, organism-based. Also noted: dose 25 mg/kg, time < 24 hrs, route po. Particulars: in vivo.
Data set [10] addresses hERG (KCNH2) (Homo sapiens, UniProt Q12809). The data set is described as follows: Inhibition of human ERG expressed in HEK293 cells at 10 uM by whole cell electrophysiology assay relative to control. It is filed as toxicity, cell-based. Particulars: HEK293 cells expressing hERG. In general terms: hERG is a cardiac potassium channel; its block is linked to QT prolongation.

For data set [11], the target named is Voltage-gated inwardly rectifying potassium channel KCNH2 (Homo sapiens, UniProt Q12809). Nature of the data set: Inhibition of human ERG expressed in HEK293 cells by whole cell electrophysiology assay. In kind it is toxicity, cell-based.
Sequence of Voltage-gated inwardly rectifying potassium channel KCNH2 (Q12809 whole entry): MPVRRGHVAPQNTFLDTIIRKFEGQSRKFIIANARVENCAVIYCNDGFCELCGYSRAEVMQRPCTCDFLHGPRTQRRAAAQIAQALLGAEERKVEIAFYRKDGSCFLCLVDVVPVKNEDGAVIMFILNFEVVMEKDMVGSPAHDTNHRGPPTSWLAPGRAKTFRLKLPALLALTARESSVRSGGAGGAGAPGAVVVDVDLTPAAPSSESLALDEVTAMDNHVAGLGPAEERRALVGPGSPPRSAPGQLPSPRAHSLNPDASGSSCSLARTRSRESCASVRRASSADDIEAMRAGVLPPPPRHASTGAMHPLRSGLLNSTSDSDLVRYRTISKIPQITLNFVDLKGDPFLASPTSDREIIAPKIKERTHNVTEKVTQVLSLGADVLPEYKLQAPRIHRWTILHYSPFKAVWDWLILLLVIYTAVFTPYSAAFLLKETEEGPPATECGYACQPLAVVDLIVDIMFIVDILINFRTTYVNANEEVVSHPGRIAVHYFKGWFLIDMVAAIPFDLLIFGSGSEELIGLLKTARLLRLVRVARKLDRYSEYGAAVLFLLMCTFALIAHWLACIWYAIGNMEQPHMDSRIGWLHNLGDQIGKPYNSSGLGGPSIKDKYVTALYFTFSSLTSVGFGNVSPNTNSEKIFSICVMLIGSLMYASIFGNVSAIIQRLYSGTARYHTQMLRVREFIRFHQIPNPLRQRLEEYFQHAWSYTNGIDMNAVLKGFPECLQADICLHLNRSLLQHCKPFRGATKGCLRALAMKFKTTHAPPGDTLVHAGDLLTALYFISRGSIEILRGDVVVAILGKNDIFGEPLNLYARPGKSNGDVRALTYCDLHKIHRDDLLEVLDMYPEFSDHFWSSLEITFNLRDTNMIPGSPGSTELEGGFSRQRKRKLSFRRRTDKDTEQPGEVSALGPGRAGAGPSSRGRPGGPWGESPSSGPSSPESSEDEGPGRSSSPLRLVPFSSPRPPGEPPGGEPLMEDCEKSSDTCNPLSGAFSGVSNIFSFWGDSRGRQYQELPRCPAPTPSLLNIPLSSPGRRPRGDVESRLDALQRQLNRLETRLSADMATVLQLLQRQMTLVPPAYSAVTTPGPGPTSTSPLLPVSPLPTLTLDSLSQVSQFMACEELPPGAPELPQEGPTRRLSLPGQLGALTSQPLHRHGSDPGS

Sequence of hERG (KCNH2) (Q12809 whole entry): as above

Consider `O=C(Nc1nnc(-c2ccc(Cl)cc2)o1)c1ccc([N+](=O)[O-])o1`, for which the MIC in data set [1] came to 0.937 µg/mL (≈ 2.8 µM).

In the case of `COc1ccc(-c2nnc(CNC(=O)c3ccc([N+](=O)[O-])o3)o2)cc1`, the MIC in data set [1] was 7.07 µg/mL (≈ 20.5 µM). Turning to `O=[N+]([O-])c1ccc(-c2nnc(-c3ccc(C(F)(F)F)cc3)o2)o1`, in data set [1], the MIC was 0.125 µg/mL (≈ 0.384 µM).

`O=[N+]([O-])c1ccc(-c2nnc(C3CCCO3)o2)o1` (configuration not stated): the MIC in data set [1] is 2 µg/mL (≈ 7.96 µM). Same read-out and setting: as for `O=C(NCc1nnc(-c2ccccc2)o1)c1ccc([N+](=O)[O-])o1`, the figure is 2.43 µg/mL (≈ 7.74 µM); as for `CCC(CC)c1nnc(-c2ccc([N+](=O)[O-])o2)o1`, 0.911 µg/mL (≈ 3.63 µM). As to `O=C(Nc1nnc(C2CCCO2)o1)c1ccc([N+](=O)[O-])o1` (configuration not stated), the MIC in data set [1] is 0.007 µg/mL (≈ 0.0238 µM). On the same count and under the same terms, the figure for `O=[N+]([O-])c1ccc(-c2nnc(-c3ccccc3)o2)o1` is 1.59 µg/mL (≈ 6.17 µM); for `COc1ccc(-c2nnc(-c3ccc([N+](=O)[O-])o3)o2)cc1` it is 0.475 µg/mL (≈ 1.65 µM).

For the compound `CC(C)(C)c1ccc(-c2nnc(CNC(=O)c3ccc([N+](=O)[O-])o3)o2)cc1`, the area under the curve AUC(0-inf) in data set [2] was determined as 99.3 ng·h/mL. Also, the CC50 at 72 h in [3] turned out to be 3.62 µg/mL (≈ 9.79 µM). Moreover, the CL/F in data set [4] turned out to be 4600 mL/min/kg. Also, the time of peak concentration (Tmax) in data set [5] came out at 15 min. Moreover, the Vd in [6] was determined as 227 L/kg. Further, in [7], the MRT amounted to 55.2 min. The compound further showed a half-life in data set [8] of 40.2 min. The same compound came in with a maximum concentration (Cmax) in [9] of 139 ng/mL. Further, the MIC in data set [1] came to 4.83 µg/mL (≈ 13 µM). Consider `CC(C)(C)c1ccc(-c2nnc(NC(=O)c3ccc([N+](=O)[O-])o3)o2)cc1`, for which the MIC in [1] was more than 16 µg/mL. With `CC(C)(C)c1ccc(-c2nnc(-c3ccc([N+](=O)[O-])o3)o2)cc1`, in [1], the minimum inhibitory concentration (MIC) was 0.06 µg/mL (≈ 0.192 µM). Regarding `O=C(Nc1nnc(-c2ccccn2)o1)c1ccc([N+](=O)[O-])o1`, the MIC in data set [1] was 0.03 µg/mL (≈ 0.0996 µM). Consider `O=C(NCc1nnc(-c2ccc(OC(F)(F)F)cc2)o1)c1ccc([N+](=O)[O-])o1`, for which the 50% cytotoxic concentration (CC50) at 72 h in data set [3] was 3.48 µg/mL (≈ 8.74 µM). Besides, in [1], the MIC amounted to 9.86 µg/mL (≈ 24.8 µM). As for `O=[N+]([O-])c1ccc(-c2nnc(-c3ccc(OC(F)(F)F)cc3)o2)o1`, the MIC in [1] is 0.178 µg/mL (≈ 0.522 µM).

In the case of `O=C(Nc1nnc(C2CCCCC2)o1)c1ccc([N+](=O)[O-])o1`, in [1], the minimal inhibitory concentration (MIC) worked out at 0.025 µg/mL (≈ 0.0816 µM). For `O=C(Nc1nnc(-c2ccncc2)o1)c1ccc([N+](=O)[O-])o1`, in [1], the MIC came out at 0.038 µg/mL (≈ 0.126 µM). Same read-out and setting: the figure for `CC(C)c1nnc(-c2ccc([N+](=O)[O-])o2)o1` is 0.709 µg/mL (≈ 3.18 µM). Regarding `O=C(Nc1nnc(-c2ccc(Br)cc2)o1)c1ccc([N+](=O)[O-])o1`, in data set [2], the area under the curve AUC(0-inf) came out at 110000 ng·h/mL. In data set [3], the cytotoxic concentration (CC50) at 72 h worked out at 57.3 µg/mL (≈ 151 µM). For the same compound, the CL/F in [4] was 3.79 mL/min/kg. In addition, the inhibition at 10 µM in data set [10] worked out at 11.3%. Also, in data set [5], the Tmax came out at 15 min. This compound had a Vd in data set [6] of 1.46 L/kg. The same compound had a mean residence time MRT in data set [7] of 382 min. The half-life in [8] was 270 min. In [9], this compound had a maximum concentration (Cmax) of 15800 ng/mL. Moreover, in [1], the MIC turned out to be 0.795 µg/mL (≈ 2.1 µM). For the same compound, the IC50 in [11] was more than 10 µM.

For `O=[N+]([O-])c1ccc(-c2nnc(-c3ccc(Br)cc3)o2)o1`, the minimum inhibitory concentration (MIC) in data set [1] turned out to be 0.597 µg/mL (≈ 1.78 µM). In the case of `O=[N+]([O-])c1ccc(-c2nnc(C3CCCCC3)o2)o1`, the MIC in data set [1] came to 1.97 µg/mL (≈ 7.47 µM).

Regarding `O=C(NCc1nnc(-c2ccc(C(F)(F)F)cc2)o1)c1ccc([N+](=O)[O-])o1`, the cytotoxic concentration (CC50) at 72 h in data set [3] turned out to be 3.56 µg/mL (≈ 9.32 µM). Further, the minimum inhibitory concentration (MIC) in [1] stood at 3.73 µg/mL (≈ 9.75 µM).

In the case of `COc1ccc(Cc2nnc(NC(=O)c3ccc([N+](=O)[O-])o3)o2)cc1`, the minimal inhibitory concentration (MIC) in data set [1] turned out to be 0.02 µg/mL (≈ 0.0581 µM). Turning to `COc1ccc(-c2nnc(NC(=O)c3ccc([N+](=O)[O-])o3)o2)cc1`, the minimal inhibitory concentration (MIC) in data set [1] amounted to 0.191 µg/mL (≈ 0.578 µM). Consider `O=C(Nc1nnc(-c2cccnc2)o1)c1ccc([N+](=O)[O-])o1`, for which the minimal inhibitory concentration (MIC) in [1] is 0.037 µg/mL (≈ 0.123 µM).

On to `O=C(Nc1nnc(-c2ccc(F)cc2)o1)c1ccc([N+](=O)[O-])o1`, for which the MIC in data set [1] was found to be 2.47 µg/mL (≈ 7.77 µM). With `O=C(Nc1nnc(-c2ccc(C(F)(F)F)cc2)o1)c1ccc([N+](=O)[O-])o1`, in data set [1], the MIC worked out at 0.999 µg/mL (≈ 2.71 µM). For the compound `O=C(Nc1nnc(-c2ccc(OC(F)(F)F)cc2)o1)c1ccc([N+](=O)[O-])o1`, the MIC in data set [1] was 1.23 µg/mL (≈ 3.2 µM). `NNC(=O)c1ccncc1` [ISONIAZID]: the minimum inhibitory concentration (MIC) in data set [1] was more than 16 µg/mL. As to `O=c1nc(N2CCN(CC3CCCCC3)CC2)sc2c([N+](=O)[O-])cc(C(F)(F)F)cc12` [MACOZINONE], the CL/F in [4] was 279 mL/min/kg. The Vd in [6] is 56.8 L/kg. In the case of `CO[C@H]1/C=C/O[C@@]2(C)Oc3c(C)c(O)c4c(O)c(c(/C=N/N5CCN(C)CC5)c(O)c4c3C2=O)NC(=O)/C(C)=C\C=C\[C@H](C)[C@H](O)[C@@H](C)[C@@H](O)[C@@H](C)[C@H](OC(C)=O)[C@@H]1C` [RIFAMPIN], the MIC in data set [1] is more than 16 µg/mL.

(Values after ChEMBL document CHEMBL5143540, “Design, synthesis and biological evaluation of nitrofuran-1,3,4-oxadiazole hybrids as new antitubercular agents” (Bioorg Med Chem, 2022).)
